Results as given in patent publication US20020132782A1, “9-amino erythromycin derivatives with antibacterial activity” (priority 2001, published 2002).
Values after ≈ are worked out from the molar mass of the structure shown.

Columns and labels:
Assay in all cases: In vitro assay of antibacterial activity (agar dilution MIC)
Assay type in all cases: cell-based
[1] = system: Haemophilus influenzae DILL AMP R; conditions: organism code CC, BHI agar, 35-37° C., 20 to 24 hours
Experimental: (§1) Representative compounds of the present invention were assayed in vitro for antibacterial activity as follows: Twelve petri dishes containing successive aqueous dilutions of the test compound mixed with 10 mL of sterilized Brain Heart Infusion (BHI) agar (Difco 0418-01-5) were prepared. Each plate was inoculated with 1:100 (or 1:10 for slow-growing strains, such as Micrococcus and Streptococcus) dilutions of up to 32 different microorganisms, using a Steers replicator block. The inoculated plates were incubated at 35-37° C. for 20 to 24 hours. In addition, a control plate, using BHI agar containing no test compound, was prepared and incubated at the beginning and end of each test.
(§2) An additional plate containing a compound having known susceptibility patterns for the organisms being tested and belonging to the same antibiotic class as the test compound was also prepared and incubated as a further control, as well as to provide test-to-test comparability. […] After incubation, each plate was visually inspected. The minimum inhibitory concentration (MIC) was defined as the lowest concentration of drug yielding no growth, a slight haze, or sparsely isolated colonies on the inoculum spot as compared to the growth control.

[2] = system: Staphylococcus aureus 1775; conditions: organism code BB, BHI agar, 35-37° C., 20 to 24 hours
Experimental: as §1, §2

[3] = system: Staphylococcus aureus ATCC 6538P; conditions: organism code AA, BHI agar, 35-37° C., 20 to 24 hours
Experimental: as §1, §2

[4] = system: Streptococcus pneumoniae 5649; conditions: organism code JJ, BHI agar, 35-37° C., 20 to 24 hours
Experimental: as §1, §2

[5] = system: Streptococcus pneumoniae ATCC 6303; conditions: organism code GG, BHI agar, 35-37° C., 20 to 24 hours
Experimental: as §1, §2

[6] = system: Streptococcus pyogenes EES61; conditions: organism code DD, BHI agar, 35-37° C., 20 to 24 hours
Experimental: as §1, §2

[7] = system: Streptococcus pyogenes PIU 2548; conditions: organism code FF, BHI agar, 35-37° C., 20 to 24 hours
Experimental: as §1, §2

[8] = system: Streptococcus pneumoniae 5737; conditions: organism code HH, BHI agar, 35-37° C., 20 to 24 hours
Experimental: as §1, §2

[9] = system: Streptococcus pyogenes 930; conditions: organism code EE, BHI agar, 35-37° C., 20 to 24 hours
Experimental: as §1, §2

MIC [1] [µg/mL] | MIC [2] [µg/mL] | MIC [3] [µg/mL] | MIC [4] [µg/mL] | MIC [5] [µg/mL] | MIC [6] [µg/mL] | MIC [7] [µg/mL] | MIC [8] [µg/mL] | MIC [9] [µg/mL] | Structure (SMILES)
4 (≈ 5.45 µM) | >100 | 0.2 (≈ 0.273 µM) | 16 (≈ 21.8 µM) | 0.06 (≈ 0.0818 µM) | 0.06 (≈ 0.0818 µM) | 32 (≈ 43.6 µM) | – | – | CC[C@H]1OC(=O)[C@H](C)[C@@H](O[C@H]2C[C@@](C)(OC)[C@@H](O)[C@H](C)O2)[C@H](C)[C@@H](O[C@@H]2O[C@H](C)C[C@H](N(C)C)[C@H]2O)[C@](C)(O)C[C@@H](C)C(=O)[C@H](C)[C@@H](O)[C@]1(C)O [Ery. A, Erythromycin A, reference compound]
16 | >100 | 0.39 | 2 | 0.03 | 0.03 | 1 | 128 | >128 | CCC1OC(=O)C(C)C(=O)C(C)C(OC2OC(C)CC(N(C)C)C2O)C(C)(OCC=Cc2cnc3ccccc3c2)CC(C)C2NC(=O)OC(C2C)C1(C)O (stereo not drawn) [Example 8, Compound of Formula (II): R^1 is (Quinolin-3-yl)CH═CHCH2; R^2 is Hydrogen; R^3 and R^4 together are —C(O)—; R^5 is Hydrogen; R^p is Hydrogen]
32 | >100 | 0.2 | 32 | 2 | 1 | >128 | >128 | >128 | CCC1OC(=O)C(C)C(=O)C(C)C(OC2OC(C)CC(N(C)C)C2O)C(C)(OCC=Cc2cnc3ccccc3c2)CC(C)C(N)C(C)C2OC(=O)OC12C (stereo not drawn) [Example 9, Compound of Formula (II): R^1 is (Quinolin-3-yl)CH═CHCH2; R^2 is Hydrogen; R^3 is Hydrogen; R^4 and R^5 are —C(O)—; R^p is Hydrogen]
16 | >100 | 0.78 | 1 | 0.5 | 0.25 | 2 | >64 | – | CCC1OC(=O)C(C)C(=O)C(C)C(OC2OC(C)CC(N(C)C)C2O)C(C)(OCC=Cc2cnc3ccccc3c2)CC(C)C(N)C(C)C(O)C1(C)O (stereo not drawn) [Example 7, Compound of Formula (II): R^1 is (Quinolin-3-yl)CH═CHCH2; R^2 is Hydrogen; R^3 is Hydrogen; R^4 is Hydrogen; R^5 is Hydrogen; R^p is Hydrogen]
